Reference: EPA's ToxValDB 9.5
Values belong to the compound of their own block, whether it stands above or below them.

Legend:
Mus musculus = conditions: short-term, duration: 28 days, oral, gavage, M, C57BL/6
Rattus norvegicus [1] = conditions: oral, gavage; for NEL / LEL: Crl:CD(SD) BR; for LOAEL / NOAEL: Sprague-Dawley
Rattus norvegicus [2] = conditions: chronic; duration: 2 years; oral; diet; M/F; reduced weight gains hematological females
Rattus norvegicus [3] = conditions: Hershberger, oral, gavage
Rattus norvegicus [4] = conditions: chronic; duration: 2 years; oral; diet; Blood: Hematological effects + Whole body: Decreased weight gain
[5] = Liver: Catalase (CAT) Activity, Liver + Multi-organ: Interleukin 1 Beta (IL-1b) mRNA + Spleen: Interleukin 6 (IL-6) mRNA
[6] = Liver: Superoxide Dismutase (SOD) Activity + Multi-organ: Catalase (CAT) Activity, Blood + Multi-organ: Interleukin 1 Beta (IL-1b), Serum + …
[7] = chronic, duration: 92 days, M, Blood: Hematocrit (HCT) + Blood: Hemoglobin (HGB) + Blood: Red Cell Distribution Width (RDW) + Blood: Reticulocytes + Blood: Total Protein (…
[8] = chronic, duration: 92 days, M, Blood: Mean Corpuscular Volume (MCV) + Blood: Red Blood Cell (RBC) + Kidney: Tubular Hypertrophy + Liver: Liver Weight, Relative + Liver: …
[9] = chronic, duration: 92 days, M, Cardiovascular: Aorta: Aorta Histopathology + Cardiovascular: Heart: Heart Histopathology + Cardiovascular: Heart: Heart Weight, Absolute + …
[10] = chronic, duration: 92 days, M, Hematologic: Blood: Activated Partial Thromboplastin Time (APTT) + Hematologic: Blood: Hematocrit (HCT) + Hematologic: Blood: Hemoglobin (…
[11] = chronic, duration: 93 days, F, Blood: Hematocrit (HCT) + Blood: Hemoglobin (HGB) + Blood: Red Blood Cell (RBC) + Blood: Red Cell Distribution Width (RDW) + Blood: …
[12] = chronic, duration: 93 days, F, Liver: Liver Weight, Absolute + Liver: Liver Weight, Relative
[13] = chronic, duration: 93 days, F, Cardiovascular: Aorta: Aorta Histopathology + Cardiovascular: Heart: Heart Histopathology + Cardiovascular: Heart: Heart Weight, Absolute + …
[14] = chronic, duration: 93 days, F, Hematologic: Blood: Activated Partial Thromboplastin Time (APTT) + Hematologic: Blood: Hematocrit (HCT) + Hematologic: Blood: Hemoglobin (…
[15] = developmental, duration: 14 days, M/F, generation: F1, F1: Pelvis: Litters with Pelvis, Incomplete Ossification + F1: Pelvis: Pelvis, Incomplete Ossification + F1: Rib: Litters with Rib, Wavy + …
[16] = developmental, duration: 14 days, M/F, generation: F1, F1: Skull: Litters with Skull, Incomplete Ossification + F1: Skull: Skull, Incomplete Ossification
[17] = developmental, duration: 14 days, M/F, generation: F1, F1: Developmental: Head: Fetal Alterations Count, Head Malformations + F1: Developmental: Head: Litters with Head Malformations + F1: …
[18] = developmental, duration: 14 days, M/F, generation: F1, F1: Developmental: Rib: Rib, Wavy + F1: Developmental: Skull: Litters with Skull, Incomplete Ossification + F1: Developmental: Sternebra: …
[19] = reproduction developmental, duration: 14 days, F, generation: P0, P0: Fur: Stained Fur + P0: Hair/Fur: Alopecia + P0: Intestine: Soft or Liquid Feces + P0: Whole Body: Hunched Posture + P0: Whole Body: …
[20] = reproduction developmental, duration: 14 days, F, generation: P0, P0: Developmental: Uterus: Implantation
[21] = reproduction developmental, duration: 14 days, F, generation: P0, P0: Developmental: Uterus: Implantation + P0: Developmental: Uterus: Resorptions, Mean/Litter + P0: Developmental: Whole Body: No. Male Pups…
[22] = reproduction developmental, duration: 14 days, F, generation: P0, P0: Developmental: Whole Body: No. Male Pups per No. of Pups Sexed + P0: General Toxicity: Whole Body: Hunched Posture + P0: General …

LEL (Mus musculus; [5]): 100 mg/kg-day | NEL (Mus musculus; [5]): 30 mg/kg-day | NEL (Mus musculus; Liver: Glutathione (GSH), Liver + Multi-organ: Chemokine C-X-C motif Ligand 1 (CXCL-1), Serum + Multi-organ: Interleukin 6 (IL-6) mRNA + …): 100 mg/kg-day | LEL (Mus musculus; Liver: Liver Histopathology + Liver: Liver Weight, Absolute + Liver: Liver Weight, Relative + Multi-organ: Chemokine C-X-C motif Ligand 1 (…): 10 mg/kg-day | LEL (Mus musculus; [6]): 30 mg/kg-day | NEL (Mus musculus; [6]): 10 mg/kg-day | NEL (Rattus norvegicus [1]; chronic, duration: 92 days, M, Adrenal: Adrenal Gland Histopathology + Adrenal: Adrenal Gland Weight, Absolute + Adrenal: Adrenal Gland Weight, Relative + Aorta: Aorta …): 125 mg/kg-day | LEL (Rattus norvegicus [1]; [7]): 125 mg/kg-day | NEL (Rattus norvegicus [1]; [7]): 25 mg/kg-day | LEL (Rattus norvegicus [1]; chronic, duration: 92 days, M, Liver: Cholesterol (CHOL), Total, Blood + Thyroid: Colloid Alteration): 1 mg/kg-day | NEL (Rattus norvegicus [1]; chronic, duration: 93 days, F, Adrenal: Adrenal Gland Histopathology + Adrenal: Adrenal Gland Weight, Absolute + Adrenal: Adrenal Gland Weight, Relative + Aorta: Aorta …): 125 mg/kg-day | LEL (Rattus norvegicus [1]; [11]): 125 mg/kg-day | NEL (Rattus norvegicus [1]; [11]): 25 mg/kg-day | LEL (Rattus norvegicus [1]; [12]): 25 mg/kg-day | NEL (Rattus norvegicus [1]; [12]): 5 mg/kg-day | NEL (Rattus norvegicus [1]; developmental, duration: 14 days, M/F, generation: F1, F1: Head: Fetal Alterations Count, Head Malformations + F1: Head: Litters with Head Malformations + F1: Kidney: Litters with Small Renal …): 500 mg/kg-day | LEL (Rattus norvegicus [1]; [15]): 500 mg/kg-day | NEL (Rattus norvegicus [1]; [15]): 200 mg/kg-day | LEL (Rattus norvegicus [1]; [16]): 200 mg/kg-day | NEL (Rattus norvegicus [1]; [16]): 50 mg/kg-day | LEL (Rattus norvegicus [1]; [19]): 500 mg/kg-day | NEL (Rattus norvegicus [1]; [19]): 200 mg/kg-day | NEL (Rattus norvegicus [1]; reproduction developmental, duration: 14 days, F, generation: P0, P0: Ovary: Corpora Lutea + P0: Uterus: Implantation + P0: Uterus: Resorptions, Mean/Litter + P0: Whole Body: Male Pups per Pups Sexed): 500 mg/kg-day
Compound: OCCC(F)(F)C(F)(F)C(F)(F)C(F)(F)C(F)(F)C(F)(F)C(F)(F)C(F)(F)F [2-(Perfluorooctyl)ethanol]
LEL (Rattus norvegicus [1]; [8]): 25 mg/kg-day | NEL (Rattus norvegicus [1]; [8]): 5 mg/kg-day | LOAEL (Rattus norvegicus [1]; [9]): 1 mg/kg-day | NOAEL (Rattus norvegicus [1]; [9]): 125 mg/kg-day | LOAEL (Rattus norvegicus [1]; chronic, duration: 92 days, M, Endocrine: Adrenal: Adrenal Gland Histopathology + Endocrine: Adrenal: Adrenal Gland Weight, Absolute + Endocrine: Adrenal: Adrenal Gland …): 1 mg/kg-day | LOAEL (Rattus norvegicus [1]; [10]): 25 mg/kg-day | NOAEL (Rattus norvegicus [1]; [10]): 5 mg/kg-day | LOAEL (Rattus norvegicus [1]; [13]): 1 mg/kg-day | NOAEL (Rattus norvegicus [1]; [13]): 125 mg/kg-day | LOAEL (Rattus norvegicus [1]; chronic, duration: 93 days, F, Endocrine: Adrenal: Adrenal Gland Histopathology + Endocrine: Adrenal: Adrenal Gland Weight, Absolute + Endocrine: Adrenal: Adrenal Gland …): 1 mg/kg-day | LOAEL (Rattus norvegicus [1]; [14]): 25 mg/kg-day | NOAEL (Rattus norvegicus [1]; [14]): 5 mg/kg-day | LOAEL (Rattus norvegicus [1]; [17]): 200 mg/kg-day | NOAEL (Rattus norvegicus [1]; [17]): 20 mg/kg-day | LOAEL (Rattus norvegicus [1]; [18]): 500 mg/kg-day | NOAEL (Rattus norvegicus [1]; [18]): 200 mg/kg-day | LOAEL (Rattus norvegicus [1]; [20]): 500 mg/kg-day | NOAEL (Rattus norvegicus [1]; [20]): 200 mg/kg-day | LOAEL (Rattus norvegicus [1]; [21]): 200 mg/kg-day | NOAEL (Rattus norvegicus [1]; [21]): 20 mg/kg-day | NOAEL (Rattus norvegicus [1]; reproduction developmental, duration: 14 days, F, generation: P0, P0: Developmental: Uterus: Resorptions, Mean/Litter): 500 mg/kg-day | LOAEL (Rattus norvegicus [1]; [22]): 200 mg/kg-day | NOAEL (Rattus norvegicus [1]; [22]): 20 mg/kg-day

Compound: CCNc1nc(Cl)nc(NCC)n1 [Simazine]
LOAEL (Rattus norvegicus [2]): 5.3 mg/kg-day | NOAEL (Rattus norvegicus [2]): 0.52 mg/kg-day | NOEL (Rattus norvegicus [3]; duration: 7 days, Wistar, inactive + Negative + neither + AST wt decreased at 75 and above / doses above 75 associated with >10% decrease in body wt / cite a …): 6.25 mg/kg-day | NOEL (Rattus norvegicus [3]; duration: 10 days, Sprague-Dawley, inactive + Negative + Negative + neither + AST wt decreased at 75 and above / doses above 75 associated with >10% decrease in body wt): 25 mg/kg-day | NOAEL (Rattus norvegicus [4]): 0.52 mg/kg-day
